Assay results reported in patent US12729377B2, “RNAi agents and compositions for inhibiting expression of angiopoietin-like 3 (ANGPTL3), and methods of use” (Arrowhead Pharmaceuticals, Inc., priority 2017, dated 2026).
In the oligonucleotide strings, read from the 5' end, every base follows the letter of its sugar. An asterisk marks phosphorothioate; unmarked linkages are phosphodiester. Other units and linkages are bracketed, terminal groups are in braces. A string of capitals states the bases alone. {NAG37} = tridentate N-acetyl-galactosamine targeting ligand, structure (NAG37)s; [invAb] = inverted abasic unit; m = 2'-O-methyl; f = 2'-fluoro

Legend:
ANGPTL3 gene = test: Example 10: serum LDL in mice; type: in vivo, C57bl/6 mice; conditions: 0.5 mg/kg sc
Description: To assess the in vivo activity of further ANGPTL3 RNAi agents that are designed to target position 304 on the ANGPTL3 gene, six- to eight-week-old female C57bl/6 mice were used. Pre-dose serum samples were taken at day −1 after a four hour fast. At day 1, each mouse was given a single subcutaneous administration of 200 μl containing 0.5 mg/kg (mpk) of an ANGPTL3 RNAi agent in D5W (dextrose in 5% water), or control (D5W) with no RNAi agent, according to the dosing groups recited in Table 47.
Each of the RNAi agents included a modified sequence and an N-acetyl-galactosamine-containing targeting ligand conjugated to the 5′ terminal end of the sense strand. (See Tables 3, 4, and 5 for modified sequences and targeting ligand structures). As noted above, each of the ANGPTL3 RNAi agents dosed in this study included nucleotide sequences designed to target the ANGPTL3 gene at position 304. The injections were performed between the skin and muscle (i.e. subcutaneous injections) into the loose skin over the neck and shoulder area. Three (3) mice in each group were tested (n=3). Serum was collected on days 8, 15, 22, 29, and for some groups on day 36 (i.e., Groups 1, 2, and 9-13 only). Mice were fasted for four hours prior to each collection. ANGPTL3 protein levels in serum were measured by ELISA assay (R&D Systems), according to the manufacturer's recommendations. Triglycerides, total cholesterol, high-density lipoprotein (HDL), and low-density lipoprotein (LDL) in serum were measured on a Cobas® Integra 400 (Roche Diagnostics), according to the manufacturer's recommendations.
The ANGPTL3 protein levels, triglyceride levels, total cholesterol levels, HDL levels, and LDL levels for each animal were normalized. For normalization, the level of ANGPTL3 protein, triglyceride, HDL, and total cholesterol, respectively, for each animal at a time point, was divided by the pre-treatment level of expression in that animal (in this case at day −1) to determine the ratio of expression “normalized to pre-treatment.” Expression at a specific time point was then normalized to the D5W control group by dividing the “normalized to pre-treatment” ratio for an individual animal by the mean “normalized to pretreatment” ratio of all mice in the D5W control group.

ANGPTL3 protein = test: Example 14: RNAi agent and statin, serum ANGPTL3 protein by ELISA in LDLR knockout mice; type: in vivo, LDLR KO mice
Text: To evaluate the effect of co-administration of RNAi agents and statins in a disease model, LDLR KO mice were commercially obtained (The Jackson Laboratory). For three weeks prior to the onset of the study, forty-one (41) male 7 to 8 week old LDLR KO mice were placed on a high fat (“western”) diet (Teklad Custom Diets TD.88137), and remained on that diet throughout the duration of the study. Pre-dose serum samples were taken on study Day 1 after a four hour fast. The dosing regimen for the study is recited in the following Table 72:
• Mice were treated at 40 mg/kg for the first 11 days, then switched to 20 mg/kg thereafter.
The vehicle used for the oral gavage in the study was a 1:1 mixture of Ora-Plus®: Ora-Sweet® solution, which were acquired commercially. For the preparation of the atorvastatin oral gavage administrations, the respective desired dose of atorvastatin was first dissolved in sterile water (0.3 mL water per 1 mL of desired formulation) and vortexed until smooth, followed by the addition of a mixture of 1:1 Ora-Plus®: Ora-Sweet® solution (0.7 mL vehicle per 1 mL of desired formulation) and vortexed. On day 1 and for each day thereafter an oral gavage dose was administered for each of the Groups except for Group 2. On Day 23, Groups 1, 2, 3, and 4 received a single subcutaneous administration of 2.5 mg/kg dose ([…] solution) of an ANGPTL3 RNAi agent in D5W (dextrose in 5% water), or vehicle control (D5W) with no RNAi agent.
The RNAi agent tested (AD05488) included a modified sequence and an N-acetyl-galactosamine-containing targeting ligand conjugated to the 5′ terminal end of the sense strand. (See Tables 3, 4, and 5 for modified sequences and targeting ligand structures). The injections were performed between the skin and muscle (i.e. subcutaneous injections) into the loose skin over the neck and shoulder area. Serum was collected on days 8, 15, 22 (pre-RNAi agent injection), 29, 36, 43, and 50. LDLR KO mice were fasted for four hours prior to each collection.
ANGPTL3 protein levels in serum were measured by ELISA assay (R&D Systems), according to the manufacturer's recommendations. Among other biomarkers, triglycerides, total cholesterol, and low-density lipoprotein (LDL) in serum were measured on a Cobas® Integra 400 (Roche Diagnostics), according to the manufacturer's recommendations.
The ANGPTL3 protein levels, triglyceride levels, total cholesterol levels, HDL levels, and LDL levels for each animal were normalized. For normalization, respective levels of ANGPTL3 protein, TG, total cholesterol, or LDL for each animal at a time point was divided by the pre-treatment level of expression in that animal (in this case pre-dose levels on Day 1) to determine the ratio of expression “normalized to pre-treatment.” Data from the study set forth in this Example are shown in the following Tables 73-76: […]

With “AD05488: RNAi agent duplex: antisense AM07235-AS, sense AM07234-SS (antisense mU*fA*mC*fUmGfAmUfCmAfAmAfUmAfUmGfUmUfGmAfG*mC; sense {NAG37}*[invAb]*mGmCmUmCmAmAmCmAfUfAfUmUmUmGmAmUmCmAmGmUmA*[invAb])” the “Avg LDL Normalized to Pre-Treatment and Control” value (“Avg LDL Normalized” for short) (ANGPTL3 gene; Day 8) was 0.836, the “Avg LDL Normalized” value (ANGPTL3 gene; Day 15) was 0.969 and the “Avg LDL Normalized” value (ANGPTL3 gene; Day 22) was 0.901. The “Avg LDL Normalized” value (ANGPTL3 gene; Day 29) was 0.762, the “Avg LDL Normalized” value (ANGPTL3 gene; Day 36) was 0.863 and the “Avg ANGPTL3 normalized to pre-treatment” value (ANGPTL3 protein; Group 2: no gavage, 2.5 mg/kg AD05488 SC on day 23, Day 8 (pre-RNAi agent injection)) was 1.419. For the same substance, the “Avg ANGPTL3 normalized to pre-treatment” value (ANGPTL3 protein; Group 2: no gavage, 2.5 mg/kg AD05488 SC on day 23, Day 15 (pre-RNAi agent injection)) was 1.584, the “Avg ANGPTL3 normalized to pre-treatment” value (ANGPTL3 protein; Group 2: no gavage, 2.5 mg/kg AD05488 SC on day 23, Day 22 (pre-RNAi agent injection)) was 1.658 and the “Avg ANGPTL3 normalized to pre-treatment” value (ANGPTL3 protein; Group 2: no gavage, 2.5 mg/kg AD05488 SC on day 23, Day 29) was 0.023. For the same substance, the “Avg ANGPTL3 normalized to pre-treatment” value (ANGPTL3 protein; Group 2: no gavage, 2.5 mg/kg AD05488 SC on day 23, Day 36) was 0.012, the “Avg ANGPTL3 normalized to pre-treatment” value (ANGPTL3 protein; Group 2: no gavage, 2.5 mg/kg AD05488 SC on day 23, Day 43) was 0.020 and the “Avg ANGPTL3 normalized to pre-treatment” value (ANGPTL3 protein; Group 2: no gavage, 2.5 mg/kg AD05488 SC on day 23, Day 50) was 0.026. For the same substance, the “Avg ANGPTL3 normalized to pre-treatment” value (ANGPTL3 protein; Group 3: 10 mg/kg daily oral gavage atorvastatin, 2.5 mg/kg AD05488 on day 23, Day 8 (pre-RNAi agent injection)) was 1.597, the “Avg ANGPTL3 normalized to pre-treatment” value (ANGPTL3 protein; Group 3: 10 mg/kg daily oral gavage atorvastatin, 2.5 mg/kg AD05488 on day 23, Day 15 (pre-RNAi agent injection)) was 1.765 and the “Avg ANGPTL3 normalized to pre-treatment” value (ANGPTL3 protein; Group 3: 10 mg/kg daily oral gavage atorvastatin, 2.5 mg/kg AD05488 on day 23, Day 22 (pre-RNAi agent injection)) was 1.681. The “Avg ANGPTL3 normalized to pre-treatment” value (ANGPTL3 protein; Group 3: 10 mg/kg daily oral gavage atorvastatin, 2.5 mg/kg AD05488 on day 23, Day 29) was 0.015, the “Avg ANGPTL3 normalized to pre-treatment” value (ANGPTL3 protein; Group 3: 10 mg/kg daily oral gavage atorvastatin, 2.5 mg/kg AD05488 on day 23, Day 36) was 0.005 and the “Avg ANGPTL3 normalized to pre-treatment” value (ANGPTL3 protein; Group 3: 10 mg/kg daily oral gavage atorvastatin, 2.5 mg/kg AD05488 on day 23, Day 43) was 0.007. The “Avg ANGPTL3 normalized to pre-treatment” value (ANGPTL3 protein; Group 3: 10 mg/kg daily oral gavage atorvastatin, 2.5 mg/kg AD05488 on day 23, Day 50) was 0.010, the “Avg ANGPTL3 normalized to pre-treatment” value (ANGPTL3 protein; Group 4: 20 mg/kg* daily oral gavage atorvastatin (40 mg/kg first 11 days), 2.5 mg/kg AD05488 on day 23, Day 8 (pre-RNAi agent injection)) was 1.683 and the “Avg ANGPTL3 normalized to pre-treatment” value (ANGPTL3 protein; Group 4: 20 mg/kg* daily oral gavage atorvastatin (40 mg/kg first 11 days), 2.5 mg/kg AD05488 on day 23, Day 15 (pre-RNAi agent injection)) was 1.999. The “Avg ANGPTL3 normalized to pre-treatment” value (ANGPTL3 protein; Group 4: 20 mg/kg* daily oral gavage atorvastatin (40 mg/kg first 11 days), 2.5 mg/kg AD05488 on day 23, Day 22 (pre-RNAi agent injection)) was 1.675, the “Avg ANGPTL3 normalized to pre-treatment” value (ANGPTL3 protein; Group 4: 20 mg/kg* daily oral gavage atorvastatin (40 mg/kg first 11 days), 2.5 mg/kg AD05488 on day 23, Day 29) was 0.022 and the “Avg ANGPTL3 normalized to pre-treatment” value (ANGPTL3 protein; Group 4: 20 mg/kg* daily oral gavage atorvastatin (40 mg/kg first 11 days), 2.5 mg/kg AD05488 on day 23, Day 36) was 0.004. For the same substance, the “Avg ANGPTL3 normalized to pre-treatment” value (ANGPTL3 protein; Group 4: 20 mg/kg* daily oral gavage atorvastatin (40 mg/kg first 11 days), 2.5 mg/kg AD05488 on day 23, Day 43) was 0.005, the “Avg ANGPTL3 normalized to pre-treatment” value (ANGPTL3 protein; Group 4: 20 mg/kg* daily oral gavage atorvastatin (40 mg/kg first 11 days), 2.5 mg/kg AD05488 on day 23, Day 50) was 0.010 and the “reduction in ANGPTL3 protein levels” value (ANGPTL3 protein; single 2.5 mg/kg subcutaneous on Day 23, LDLR KO mice on high fat diet) was “clear reduction”.
